Some test systems named below: A549; HCT-15; HT-29; UO-31; COLO 205; SN12C; IGROV-1; OVCAR-8; NCI-H522; MOLT-4; OVCAR-4; PC-3; T47D; UACC-62; 786-0; HOP-92; SW-620; NCI-H23; SF-539.
Common to all, as to assay: NCI anticancer screen, dose series, 48 h

This note sets out measurements from ChEMBL document CHEMBL1201862, “PubChem BioAssay data set” (2004).

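Values below derive from 48-hour exposures of cells grown in 96-well plates, with endpoints linearly interpolated between the two concentrations bracketing the appropriate inhibition level. GI50 marks 50% less growth.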 Active and inactive are the calls of the source. No stated cut-off is given here; in the data, active = GI50 up to about 1.1 µM and inactive = higher.

On to `Nc1nnc2oc3ccc4ccccc4c3cc1-2`, for which the GI50 in the test with A549 is 47.3 µM (inactive); with HCT-15 it was 28 µM; in the test with HT-29, 38.2 µM (inactive); in the test on UO-31 it was 32 µM (inactive); in the test with COLO 205, 23.6 µM (inactive); with SN12C it was 22.9 µM (inactive). In addition, the GI50 with IGROV-1 was 30.6 µM (inactive); in the test on OVCAR-8, 32.4 µM (inactive); with NCI-H522 it was 24.4 µM (inactive); in the test on MOLT-4, 27.7 µM (inactive); with OVCAR-4 it was 30.8 µM (inactive); in the test on PC-3 it was 32.7 µM (inactive). Besides, the GI50 in the test with T47D was 11.4 µM (inactive); in the test with UACC-62, 29 µM (inactive); in the test on 786-0 it was 34 µM (inactive); in the test with HOP-92, 26.2 µM (inactive); with SW-620, 36.1 µM (inactive); in the test with NCI-H23 it was 42.8 µM (inactive).

On to `Cc1cn(CCOCCOC(=O)NC(CCCNC(N)=O)C(=O)O)c(=O)[nH]c1=O` (stereo unspecified), for which the GI50 is > 100 µM (inactive) in the test with A549; > 100 µM in the test with HCT-15; > 100 µM (inactive) in the test with HT-29; > 100 µM (inactive) with UO-31; > 100 µM (inactive) in the test on COLO 205; > 100 µM (inactive) with SN12C. Moreover, the GI50 was 36 µM (inactive) in the test on IGROV-1; > 100 µM (inactive) in the test with OVCAR-8; > 100 µM (inactive) in the test with MOLT-4; > 100 µM (inactive) in the test with OVCAR-4; > 100 µM (inactive) in the test with PC-3; > 100 µM (inactive) in the test with SF-539. The GI50 in the test with T47D, in the test with UACC-62, in the test with 786-0, with HOP-92, in the test on SW-620 and in the test with NCI-H23 was > 100 µM (inactive) throughout.

For the molecule `CC(C)=CCC[C@@H](C)C1=C(O)C(=O)C(C)=C(N)C1=O`, the GI50 in the test on A549 was 25.8 µM (inactive); in the test with HCT-15, 4.85 µM; with HT-29, 40.8 µM (inactive); in the test with UO-31, 11.1 µM (inactive); with COLO 205, 27.9 µM (inactive); in the test with SN12C it was 35.5 µM (inactive). The GI50 is 7.69 µM (inactive) in the test with IGROV-1; 17.9 µM (inactive) in the test on OVCAR-8; 6.5 µM (inactive) in the test on MOLT-4; 29.9 µM (inactive) in the test with OVCAR-4; 47.8 µM (inactive) in the test with PC-3; 31.6 µM (inactive) with SF-539. Further, the GI50 is 23.9 µM (inactive) with T47D; 15.6 µM (inactive) in the test with UACC-62; 33.4 µM (inactive) with 786-0; 53.8 µM (inactive) with HOP-92; 43.1 µM (inactive) in the test with SW-620; 27.3 µM (inactive) in the test with NCI-H23.

For the molecule `CC(C)C[C@H]1[C@@H](OCc2ccccc2)COS(=O)N1[C@H](C)c1ccccc1` (stereo partly specified), the GI50 in the test with A549 is 17.5 µM (inactive); in the test with HCT-15, 26.9 µM; in the test with HT-29, 6.95 µM (inactive); in the test with UO-31, 25.3 µM (inactive); with COLO 205, 15.2 µM (inactive); with SN12C it was 17.5 µM (inactive). Also, the GI50 in the test on IGROV-1 is 8.75 µM (inactive); in the test on OVCAR-8, 26.7 µM (inactive); in the test on NCI-H522 it was 4.33 µM (inactive); with MOLT-4 it was 11.9 µM (inactive); in the test on PC-3 it was 5.79 µM (inactive); in the test with T47D, 9.55 µM (inactive). The GI50 in the test with UACC-62 is 35.1 µM (inactive); in the test on 786-0, 13.9 µM (inactive); in the test on HOP-92 it was 18.9 µM (inactive); in the test with SW-620, 29.1 µM (inactive); in the test with NCI-H23, 26.1 µM (inactive).

As for `NC1CSc2ccccc2NC1=O` (stereo unspecified), the GI50 was > 100 µM (inactive) in the test with A549; > 100 µM in the test with HCT-15; > 100 µM (inactive) with HT-29; > 100 µM (inactive) with UO-31; > 100 µM (inactive) in the test with COLO 205; > 100 µM (inactive) in the test with SN12C. Also, the GI50 in the test with IGROV-1, in the test with OVCAR-8, in the test with NCI-H522, with MOLT-4, with OVCAR-4 and in the test with PC-3 was > 100 µM (inactive) throughout. Moreover, the GI50 in the test on SF-539, with T47D, in the test on UACC-62, with 786-0, in the test on SW-620 and with NCI-H23 was > 100 µM (inactive) each time.

Consider `CC(=O)NNC(=S)N/C=C1/C(=O)C=C(C)OC1=O`, for which the GI50 in the test with A549 was > 100 µM (inactive); with HCT-15 it was > 100 µM; in the test with HT-29, > 100 µM (inactive); with UO-31, > 100 µM (inactive); with COLO 205, > 100 µM (inactive); in the test with SN12C, > 100 µM (inactive). Further, the GI50 in the test on IGROV-1, with OVCAR-8, in the test with MOLT-4, with OVCAR-4, in the test with PC-3 and in the test on SF-539 was > 100 µM (inactive) each time. The GI50 in the test with T47D, with 786-0, in the test with HOP-92, with SW-620 and with NCI-H23 was > 100 µM (inactive) each time.

For `S=C(Nc1ccc2c(c1)oc1ccccc12)c1cccnc1`, the GI50 with A549 was 37.6 µM (inactive); in the test on HCT-15, > 100 µM; with HT-29 it was > 100 µM (inactive); with UO-31, 22.7 µM (inactive); with COLO 205, > 100 µM (inactive); in the test on SN12C it was > 100 µM (inactive). Besides, the GI50 in the test on IGROV-1 was 41.1 µM (inactive); in the test with OVCAR-8, 26.2 µM (inactive); in the test on NCI-H522 it was 22 µM (inactive); with MOLT-4 it was > 100 µM (inactive); with OVCAR-4 it was 33.7 µM (inactive); in the test on PC-3 it was 55.3 µM (inactive). Further, the GI50 in the test on T47D was 30.5 µM (inactive); in the test with UACC-62, 39.5 µM (inactive); in the test on 786-0, 35.3 µM (inactive); in the test on HOP-92, 25.3 µM (inactive); with SW-620, > 100 µM (inactive); with NCI-H23, 24.5 µM (inactive).

For the molecule `CCOC(=O)C1NCCc2c1[nH]c1ccccc21` (stereo unspecified), the GI50 is > 10 µM (inactive) in the test on A549; > 10 µM in the test on HCT-15; > 10 µM (inactive) with HT-29; > 10 µM (inactive) with COLO 205; > 10 µM (inactive) in the test with SN12C; > 10 µM (inactive) in the test on IGROV-1. The GI50 in the test on OVCAR-8, in the test with NCI-H522, with MOLT-4, with OVCAR-4, in the test on PC-3 and in the test with T47D was > 10 µM (inactive) in each case. Moreover, the GI50 in the test on UACC-62, with 786-0, with HOP-92, with SW-620 and in the test on NCI-H23 was > 10 µM (inactive) in each case.
